Key:
[1] = test system: spontaneous hypertension rats; assay: antihypertensive effect on spontaneous hypertension rat, 8 weeks of continuous gavage; assay type: in vivo; conditions: for blood pressure: Captopril group 10 mg/kg.bw gavage, n = 8
Protocol: The blank control group was gavaged with the same volume of distilled water, and the positive control group was gavaged with 10 mg/kg.bw captopril.

[2] = target: ACE (Homo sapiens, UniProt P12821); conditions: read-out: in vitro antihypertensive activity IC50; cited from earlier work
[3] = test system: SHR; conditions: oral gavage 50 mg/kg, after two hours; cited from earlier work
[4] = after 8 weeks of continuous gavage, each group, P>0.05

ACE, sequence (P12821 30-1306, species assumed): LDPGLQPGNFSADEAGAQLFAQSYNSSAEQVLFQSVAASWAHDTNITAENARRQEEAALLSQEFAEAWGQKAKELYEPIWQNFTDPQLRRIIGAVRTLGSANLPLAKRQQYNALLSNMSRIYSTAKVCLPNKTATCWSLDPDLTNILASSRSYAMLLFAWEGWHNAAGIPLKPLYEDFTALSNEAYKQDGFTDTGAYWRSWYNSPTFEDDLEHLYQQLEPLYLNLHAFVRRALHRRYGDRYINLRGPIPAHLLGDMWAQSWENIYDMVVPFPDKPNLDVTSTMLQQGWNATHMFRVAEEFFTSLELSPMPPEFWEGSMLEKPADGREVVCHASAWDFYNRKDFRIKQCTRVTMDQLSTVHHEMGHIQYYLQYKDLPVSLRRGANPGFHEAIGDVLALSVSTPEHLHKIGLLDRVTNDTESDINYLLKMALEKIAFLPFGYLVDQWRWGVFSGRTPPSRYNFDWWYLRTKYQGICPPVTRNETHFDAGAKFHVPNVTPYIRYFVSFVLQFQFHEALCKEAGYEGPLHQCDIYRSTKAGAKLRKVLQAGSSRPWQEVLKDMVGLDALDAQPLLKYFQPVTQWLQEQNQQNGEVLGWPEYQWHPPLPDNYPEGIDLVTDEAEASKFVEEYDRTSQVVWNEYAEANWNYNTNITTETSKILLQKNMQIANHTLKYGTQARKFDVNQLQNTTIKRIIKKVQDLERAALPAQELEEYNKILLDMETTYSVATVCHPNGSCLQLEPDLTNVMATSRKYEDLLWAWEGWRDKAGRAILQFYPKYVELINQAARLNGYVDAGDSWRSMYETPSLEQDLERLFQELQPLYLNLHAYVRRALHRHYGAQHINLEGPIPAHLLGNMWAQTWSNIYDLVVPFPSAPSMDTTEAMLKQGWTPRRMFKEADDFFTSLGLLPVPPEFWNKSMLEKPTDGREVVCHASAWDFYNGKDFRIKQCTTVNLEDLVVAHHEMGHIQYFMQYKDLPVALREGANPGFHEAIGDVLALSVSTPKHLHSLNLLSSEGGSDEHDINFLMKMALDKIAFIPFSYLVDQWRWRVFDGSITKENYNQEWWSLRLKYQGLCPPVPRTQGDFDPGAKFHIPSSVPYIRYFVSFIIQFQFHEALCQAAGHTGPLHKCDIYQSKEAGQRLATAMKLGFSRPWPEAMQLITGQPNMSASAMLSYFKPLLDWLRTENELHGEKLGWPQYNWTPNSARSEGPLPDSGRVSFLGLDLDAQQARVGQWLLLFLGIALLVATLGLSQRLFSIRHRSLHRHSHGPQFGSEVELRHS

Row | Molecule | blood pressure ([1]; 0w) [mmHg] | blood pressure ([1]; 1w) [mmHg] | blood pressure ([1]; 2w) [mmHg] | blood pressure ([1]; 3w) [mmHg] | blood pressure ([1]; 4w) [mmHg] | blood pressure ([1]; 5w) [mmHg] | blood pressure ([1]; 6w) [mmHg] | blood pressure ([1]; 7w) [mmHg] | blood pressure ([1]; 8w) [mmHg] | body weight [1, 4] | heart rate [1, 4] | heart/body weight ratio [1, 4] | Serum aldosterone concentration vs control group ([1]; captopril group 10 mg/kg.bw, n=8, P<0.01) | IC50 [2] [µM] | drop of blood pressure [3] [mmHg]
1 | C[C@H](CS)C(=O)N1CCC[C@H]1C(=O)O [Captopril, captopril] | 193 ± 6 | 184 ± 16 | 177 ± 9 | 174 ± 12 | 170 ± 14 | 168 ± 12 | 164 ± 17 | 162 ± 15 | 161 ± 16 | no significant change | no significant change | no significant change | significantly lower | – | –
2 | alanine-Tyrosine [AY] | – | – | – | – | – | – | – | – | – | – | – | – | – | 14.2 | 9.5

Source: patent US8940685B2, “Method for preparing active peptides from corn germ proteins” (China National Research Institute of Food and Fermentation …, priority 2011, dated 2015)
